The values below come from patent publication US11723897B2, “Fatty acids as anti-inflammatory agents” (University of Pittsburgh—Of the Commonwealth System of …, priority 2009, dated 2023).

One test addresses T1, PPARγ (Homo sapiens, UniProt P37231).
T1 sequence (P37231 1-505): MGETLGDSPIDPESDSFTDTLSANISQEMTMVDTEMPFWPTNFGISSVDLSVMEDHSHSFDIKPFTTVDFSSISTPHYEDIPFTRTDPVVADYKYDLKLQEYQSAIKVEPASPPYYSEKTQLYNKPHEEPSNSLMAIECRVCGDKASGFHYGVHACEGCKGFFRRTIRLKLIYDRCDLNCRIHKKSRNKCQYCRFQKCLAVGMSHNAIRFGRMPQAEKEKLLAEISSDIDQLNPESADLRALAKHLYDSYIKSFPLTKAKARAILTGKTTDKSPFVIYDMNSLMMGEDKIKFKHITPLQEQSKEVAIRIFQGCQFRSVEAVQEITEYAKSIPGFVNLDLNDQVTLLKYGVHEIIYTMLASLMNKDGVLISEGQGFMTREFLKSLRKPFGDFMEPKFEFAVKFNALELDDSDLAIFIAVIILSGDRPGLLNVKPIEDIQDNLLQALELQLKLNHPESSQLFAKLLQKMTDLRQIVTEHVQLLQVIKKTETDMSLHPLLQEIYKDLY
Put plainly: PPARγ beta-lactamase reporter assay. Format: cell-based. As to conditions: concentrations 0.5-10,000 nM; read-out: PPARγ activation EC50. How it is done:
FIG. 11a-11e illustrates modulation of anti-oxidant and inflammatory responses by 17-oxoDHA and 17-oxoDPA. RAW264.7 cells were treated with increasing concentration of 17-oxoDHA and 17-oxoDPA. (a) Cells were harvested 1 h after treatment and Nrf2 levels were quantified in nuclear extracts. (b) Cells were harvested 18 h after treatment and HO-1 and Nqo1 (upper band) levels were measured by western blot. (c, d) RAW264.7 cells were treated with increasing concentration of 17-oxoDHA and 17-oxoDPA for 6 h and Kdo2+IFNγ were added. Samples were collected at 12 h. IL-6, MCP-1 and IL-10 levels were measured in the cell media by Quantikine ELISA Kit (R&D Systems) and normalized by the total protein content (c); Nitrite levels were measured in the cell media and normalized by the total protein content and iNOS and Cox-2 levels were measured in total cell lysates (d); (e) PPARγ beta-lactamase reporter assays were performed for Rosiglitazone, 17-OxoDPA, 17-OxoDHA, 15d-PGJ2, 17-hydroxyDHA, DPA, and DHA with concentrations ranging from 0.5-10,000 nM.
The observation that oxo-fatty acids, such as 15d-PGJ2^30, 5-oxoEPA, 6-oxoOTE, and the synthetic 4-oxoDHA^31, covalently bind and activate the peroxisome proliferator-activated receptor γ (PPARγ), prompted the present inventors to test the ability of 17-oxoDPA, and 17-oxoDHA to activate PPARγ. […]

The test system of test [1] is EFAD formation in RAW264.7 cells. The experiment in a line: Inhibitor study: EFAD formation in RAW264.7 cells activated with Kdo2 and IFNγ. Format: cell-based, murine.
A further test concerns RAW264.7 cells. Put plainly: GS-EFAD adducts in activated RAW264.7 cells. As to conditions: activated RAW264.7 cells + ASA. The class given is cell-based, murine.
In the next test the target is T2, Ovine placental COX-2 (Ovis aries, UniProt P79208).
T2 construct: Ovine placental COX-2 (Cayman 60120) was also from Cayman Chemicals; purchased Cayman Chemicals 60120; host or cells: ovine placenta (tissue-derived, from the word 'placental')
T2 sequence (P79208 17-603): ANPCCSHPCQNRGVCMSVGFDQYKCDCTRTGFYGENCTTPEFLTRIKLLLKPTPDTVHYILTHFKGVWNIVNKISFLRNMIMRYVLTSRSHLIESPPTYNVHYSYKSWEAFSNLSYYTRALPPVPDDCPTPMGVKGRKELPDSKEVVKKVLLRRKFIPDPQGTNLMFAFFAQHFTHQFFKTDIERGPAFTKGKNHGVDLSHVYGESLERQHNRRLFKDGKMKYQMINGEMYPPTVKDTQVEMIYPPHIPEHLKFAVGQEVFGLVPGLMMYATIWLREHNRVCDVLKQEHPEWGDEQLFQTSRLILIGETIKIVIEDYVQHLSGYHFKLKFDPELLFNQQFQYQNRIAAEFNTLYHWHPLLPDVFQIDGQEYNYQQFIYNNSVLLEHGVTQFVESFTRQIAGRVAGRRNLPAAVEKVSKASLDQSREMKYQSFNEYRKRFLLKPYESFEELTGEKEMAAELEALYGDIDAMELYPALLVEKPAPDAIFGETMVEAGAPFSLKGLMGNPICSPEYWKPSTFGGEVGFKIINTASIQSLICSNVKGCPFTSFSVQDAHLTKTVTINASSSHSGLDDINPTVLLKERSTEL
Put plainly: In vitro COX-2 reaction with DPA ± ASA. Format: biochemical. As to conditions: purified ovine COX-2 + DPA 10 μM, 2 mM ASA.

Test [2] has as its system bone marrow-derived macrophage (BMDM) cells. Put plainly: EFAD formation in activated bone marrow-derived macrophages ± ASA. As to conditions: activated with Kdo2 and IFNγ, treated with ASA. Format: cell-based, C57BL/6 murine.
The mark [3] stands for this setting: RAW264.7 + Kdo2 + IFNγ, 20 h, ↓ decrease, ↑ increase, NE (not defined in patent).

For `CCCCCC=CC=C1C(=O)C=C[C@@H]1CC=CCCCC(=O)O` [15d-PGJ2, 15-deoxy-Δ (12,14)-prostaglandin J2], on PPARγ, the 50% effective concentration (EC50) is ~0.025 µM.
For the molecule `CC(=O)Oc1ccccc1C(=O)O` [ASA, acetyl salicylic acid], in test [1] (ASA 200 μM, all EFADs except EFAD-4 and EFAD-6), the “Increase of EFAD formation” value is given as “about 2.5 fold”. Moreover, in test [1] (setting [3]), the “Effect of inhibitor on EFAD-1 formation” value is on record as “↑”, the “Effect of inhibitor on EFAD-2 formation” value is recorded as “↑”, the “Effect of inhibitor on EFAD-3 formation” value is listed as “↑” and the “Effect of inhibitor on EFAD-4 formation” value is recorded as “↓”. In test [1] (setting [3]), the “Effect of inhibitor on EFAD-5 formation” value is “↑” and the “Effect of inhibitor on EFAD-6 formation” value was “↓”. Also, the “Formation of GS-adducts” value with RAW264.7 cells is “enhanced the formation of GS-adducts”. The “Formation of OH-DPA by COX-2” value on Ovine placental COX-2 was “increased the rate and extent of formation”. In test [2], the “Extent of EFAD formation in BMDM” value is “increased about two to three fold”.
